# Results reported in patent US5202338A, “Dihydroquinoline derivatives, pharmaceutical compositions and methods of use of dihydroquinoline derivatives as modulators of the arachidonic acid cascade” (priority 1990, dated 1993).
# Structures can show the parent of a compound that is named as a salt.
# How the values were obtained:
# [1] = system: TXB2 formation in human leukocyte homogenate; test: TXB2 formation from arachidonic acid in human leukocyte homogenate (RIA); format: biochemical; details: DMSO control 1.95 ± 0.31
# Method: The transformation of arachidonic acid to thromboxane B2 and leukotriene B4 in a human leukocyte homogenate was measured by means of the method published by Tetason, J. E. et al., Brit. J. Pharmacol., 1988 94:528-529, as follows: Fresh blood, from donors who had not ingested aspirin or other drugs for at least 14 days previously, was collected, with EDTA (1.2 mgml^-1) as anticoagulant; erythrocytes were sedimented by addition of 2% methyl cellulose (7.5 ml 100^-1 blood) and incubation for 40 minutes at 37° C. The supernatant containing leukocytes and platelets was removed, diluted two fold with sodium phosphate-buffered saline (0.9% NaCl, pH 7.2, 20 mM phosphate) and centrifuged for 10 minutes at 150 g. The supernatant, containing platelets, was removed and the leukocyte pellet resuspended in 50 ml of ice-cold 0.82% NH4 Cl containing 5 mM KCl (brought to pH 7.4 with 4.4% NaHCO3). This procedure lysed any remaining erythrocytes during 10 minutes incubation on ice. The leukocyte suspension was then centrifuged again (10 minutes, 150 g) and the pellet resuspended in 25 ml sodium phosphate buffer (50 mM, pH 7.0) containing EDTA (1 mM). […]
# DMSO was added. […] Reaction products, TXB2 and LTB4, were measured by specific radioimmunoassay (RIA) as published by Salmon, J. A. Prostaglandins, 1978 15: 383-397; and Salmon, J. A. et al., Prostaglandins, 1982, 24:225-235. […]
# Erlich ascites tumor = test: Tumor-inhibiting effect on the Erlich ascites tumor; format: in vivo, mice
# Method: A daily oral dose of 150 mg/kg of body-weight of the compound prepared in Example 1 was administered to LATI-inbred CFLP male mice weighing 20 to 22 g each for 5 days, then 2×10^6 of Erlich ascites tumour cells were implanted under sterile conditions. Thereafter, the drug-treatment was continued and an examination was carried out on the 16th day following the implantation. An 80% inhibition was observed on the 17th day. The percentage of inhabitation was determined as described by Zs. Pollak in the dissertation entitled "Development of a Radiosensitizing Antioxidant and Use Thereof in the Oncological Practice" pages 44 to 45 and 76 to 82, as cited above.
# gastric mucosa = test: Protection of the gastric mucosa against ethanol; format: in vivo, rats; details: anhydrous ethanol + 100 mg/kg by gastric tube; ethanol only 21±0.31%
# Method: The protection of the gastric mucosa against the effect of ethanol was investigated. Ten CFY male rats weighing 200 to 220 g each were starved for 18 hours while allowing them to consume water ad libitum. Then, a dose of 50 or 100 mg/kg of body weight of the compound prepared in Example 1 was administered in such a way that the active agent had previously homogenized in an 1% aqueous methylcellulose solution for 1 minute. The substance was administered through a gastric tube. After 30 minutes, 1 ml of anhydrous ethanol each was orally given to the animals. Five minutes later the animals were decapitated under a general anaesthesia, their stomachs were removed, opened along the large curvature and washed with water. Thereafter the stomachs were stretched out and photographed. The alterations found on the gastric mucosa were observed by planimetry. The lesions were given as percentage of the whole surface.
# [2] = Acute toxicity study and determination of LD50; format: in vivo; details: rat, in vivo; oral, Wistar rats of both sexes
# Method: (§1) The Example was carried out in Wistar rats (Lati, Budapest) of both sexes weighing 150-160 g each. Doses of L90 were measured by an analytical balance, for each animal and suspended in 2 ml of paraffine oil while mixing at 60° C. Suspension was then cooled to room temperature and administered through a gastric tube. Animals were fed with standard rat feed (Lati, Budapest) and received water ad libitum. They were kept at a room temperature of 23 to 25° C. The relative humidity of room air amounted to 50-70 percent. Three study groups of animals were formed.
# (§2) The animals received a single dose of L90 amounting to 1 g/kg body weight.
# (§3) The animals received a single dose of L90 amounting to 5 g/kg body weight.
# (§4) The animals received a single dose of 2 ml of paraffine oil (control group).
# (§5) Animals were carefully observed on 10 subsequent days, after treatment. On day 11, the animals were sacrificed in general anesthesia. Autopsy of all animals was performed followed by the macroscopic examination of all organs.
# Wistar rats = test: Acute toxicity study and determination of LD50; format: in vivo
# Method: as §1, §2, §3, §4, §5
# cytochrome C and P 450 = test: Cytochrome C and P450 activities in atherogenic-diet rats; format: in vivo; details: atherosclerosis induced by atherogenic diet in rats
# From the text: During model-experiments of atherosclerosis induced by atherogenic diet in rats, the pathologic increase of cythochrome C and P 450 enzyme activities is to be observed. This is disadvantageous because these enhanced enzyme activities induce tissular lipid peroxidation, involving all of its well known untoward consequences. As the first step of this chain reaction superoxyde - anion radical is formed from molecular oxygen. Laitar however initiate further few radical reactions.
# [3] = system: hyperoxia (95% oxygen and 5% CO2); test: Hyperoxia-inhibiting effect; format: in vivo, rats
# Method: CFY rats with an average body weight of 250 g each, belonging to both sexes were kept in an atmosphere of 95% oxygen and 5% CO2. Three treatment groups were formed.
# Group 2 (n=25): Hyperoxia was induced as described for Group 1, however, 20 mg/kg body weight/day i.v. Dexamethasone (steroid hormone preparation) was administered during the hyperoxia period. […] Autopsy and histological examinations were performed on the animals died and on the animals sacrificed on the 35th day.
# Group 3 (n=25): Hyperoxia was induced as in the Groups mentioned above, but during the period of hyperoxia 65 mg/kg body weight of the compound according to Example 4 was administered i.v. The rate of death amounted to 4% (1 animal).
# [4] = system: extrinsic bronchial asthma; test: Investigation of MTDQ in vivo in steroid-dependent asthma patients; parameters: species or system human
# Method: Four women and two men (with an average age of 41 years); between 17 and 56 years participated in this study, who suffered from extrinsic bronchial asthma, and had earlier been treated with at least 20 mg/day of prednisolone (11,17,21-trihydroxypregn-4-ene-3,20-dione) or with an equivalent steroidal hormone since 2 to 15 years of age. During the experimental period, the patients were kept on the treatment commonly used for bronchial asthma, except steroidal hormones.
# On admission, their respiratory function characteristics were as follows:
# Their sputum became more dilute and easy to eliminate. On auscultation, a soft vesicular respiration was again observed over their lungs. The X-ray picture of the lungs was in agreement with the clinical improvement.
# On the fifteenth day of treatment, the respiratory functions were as follows:
# The experiment described in Example 10 was repeated, except that daily 300 mg of allopurinol (Milurit®, EGIS Pharmaceutical Works) were daily administered simultaneously with the start of the MTDQ administration. […] In the case of a prolonged treatment, the daily amount of MTDQ could be decreased from 2500 mg to 1000-1200 mg by using this combination.
compound,measurement,setting,value
"CC(=O)C(c1ccc2c(c1)C(C)=CC(C)(C)N2)c1ccc2c(c1)C(C)=CC(C)(C)N2 [Example 1, 6,6'-acetylmethine-bis(2,2,4-trimethyl-1,2-dihydroquinoline)]",TXB2,[1]; 20/μM compound,0.68 ± 0.14
same,TXB2,[1]; 100/μM compound,0.53 ± 0.08
same,Tumor inhibition,"Erlich ascites tumor; 150 mg/kg oral daily, CFLP male mice, 17th day",80%
same,Ascites ml.,"Erlich ascites tumor; 150 mg/kg, control 15.06 + 2.85",3.95 + 0.62 ml
same,number of cells,"Erlich ascites tumor; 150 mg/kg, control 96.5 × 10^7 /ml",7.33e+07 mL⁻¹
same,Gastric mucosa lesions as percentage of the whole surface,gastric mucosa,4.2±0.51%
same,LD50 at 240 h,[2],> 5000 mg/kg
same,Survival and observations,"Wistar rats; single oral dose 1 g/kg, day 11",all rats were alive
same,Mortality,"Wistar rats; single oral dose 5 g/kg, n=8, 10 days of observation",Two rats belonging to Group 2 died on day 8
"CC1=CC(C)(C)Nc2ccccc21 [2,2,4-trimethyl-1,2-dihydroquinoline]",Normalization of increased Cytochrome C and P450 activities,cytochrome C and P 450,did not exert this effect either
C[C@@H]1C[C@H]2[C@@H]3CCC4=CC(=O)C=C[C@]4(C)[C@@]3(F)[C@@H](O)C[C@]2(C)[C@@]1(O)C(=O)CO [Dexamethasone],Rate of survival,[3]; 20 mg/kg/day i.v. during hyperoxia,did not improve
same,PGF1C and TXB2 concentrations,"[3]; 20 mg/kg/day i.v., compared to physiological parameters",significantly lower
same,Pathological lesions at autopsy and histology,"[3]; 20 mg/kg/day i.v., compared with Group 1",number and severity of the pathological lesions were found less than in Group 1
NC(=O)c1nc[nH]c1N [4-amino-5-imidozolcarboxidamide],Normalization of increased Cytochrome C and P450 activities,cytochrome C and P 450,did not exert this effects
Vitamin A,Normalization of increased Cytochrome C and P450 activities,cytochrome C and P 450,did not exert this effects
"CC(=O)C(c1ccc2c(c1)C(CS(=O)(=O)O)=CC(C)(C)N2)c1ccc2c(c1)C(CS(=O)(=O)O)=CC(C)(C)N2 [Example 4, sodium salt of 6,6'-acetylmethine-bis(2,2-dimethyl-1,2-dihydroquinoline-4-methanesulfonicacid)]",Rate of death,"[3]; 65 mg/kg i.v. during hyperoxia, untreated 50% died",4%
same,Pathological lesions at autopsy and histology,"[3]; 65 mg/kg i.v., animals sacrificed on 35th day",no pathological lesions were detected
"CC1=CC(C)(C)Nc2ccc(Cc3ccc4c(c3)C(C)=CC(C)(C)N4)cc21 [MTDQ, 6,6'-methylene-bis(2,2,4-trimethyl-1,2-dihydroquinoline)]",Omission of steroidal hormone,[4]; MTDQ combined with 300 mg allopurinol daily,the steroidal hormone could immediately be omitted
same,Daily amount of MTDQ needed in prolonged treatment,"[4]; combined with 300 mg allopurinol daily, decreased from 2500 mg",1000 to 1200 mg
same,Partial oxygen pressure in the arterial blood,"[4]; fifteenth day of treatment, MTDQ 25 mg/kg orally daily, steroid stopped on day 4",10.9±0.45 kPa
same,Forced expiratory volume,"[4]; fifteenth day of treatment, MTDQ 25 mg/kg orally daily, normal value 2.5 to 2.8",2.06 ± 0.8 L
same,Forced vital capacity,"[4]; fifteenth day of treatment, MTDQ 25 mg/kg orally daily, normal value 3.5 to 4",3.78 ± 0.33 L
same,Clinical improvement,"[4]; fifth day, MTDQ 25 mg/kg orally daily",the patients became attack-free
Oc1cc(O)c2c(c1)O[C@H](c1ccc(O)c(O)c1)[C@@H](O)C2 [(+) --Cyanidol],Normalization of increased Cytochrome C and P450 activities,cytochrome C and P 450,did not exert this effects
"CC1(C)C=C(CS(=O)(=O)O)c2ccccc2N1 [2,2-dimethyl-4-methane-sulfonic acid salt-1,2-dihydroquinoline]",Normalization of increased Cytochrome C and P450 activities,cytochrome C and P 450,did not exert this effect either
O=C1O[C@H]([C@@H](O)CO)C(O)=C1O [Vitamin C],Normalization of increased Cytochrome C and P450 activities,cytochrome C and P 450,did not exert this effects
CC(C)(S)[C@@H](N)C(=O)O [D-Pencillamino],Normalization of increased Cytochrome C and P450 activities,cytochrome C and P 450,did not exert this effects
